# Laboratory results as given in US10358436B2, “Kinase inhibitors and method of treating cancer” (University Health Network, priority 2010, dated 2019).
# How the values were obtained:
# ALK = ALK (Homo sapiens (Human), UniProt Q9UM73); type: biochemical; conditions: read-out: % Inhibition @ 0.1 μM, ALK
# Abl (T315I) = Abl (T315I) (Homo sapiens (Human), UniProt P00519, T315I); type: biochemical; conditions: read-out: % Inhibition @ 0.1 μM, Abl (T315I)
# Abl = Abl (Homo sapiens (Human), UniProt P00519); type: biochemical; conditions: read-out: % Inhibition @ 0.1 μM, Abl
# Ron = Ron (Homo sapiens (Human), UniProt Q04912); type: biochemical; conditions: read-out: % Inhibition @ 0.1 μM, Ron
# Abl (M351T) = Abl (M351T) (Homo sapiens (Human), UniProt P00519, M351T); type: biochemical; conditions: read-out: % Inhibition @ 0.1 μM, Abl (M351T)
# Bmx = Bmx (Homo sapiens (Human), UniProt P51813); type: biochemical; conditions: read-out: % Inhibition @ 0.1 μM, Bmx
# ARK5 = ARK5 (Homo sapiens (Human), UniProt O60285); type: biochemical; conditions: read-out: % Inhibition @ 0.1 μM, ARK5
# EphB1 = EphB1 (Homo sapiens (Human), UniProt P54762); type: biochemical; conditions: read-out: % Inhibition @ 0.1 μM, EphB1
# MuSK = MuSK (Homo sapiens (Human), UniProt O15146); type: biochemical; conditions: read-out: % Inhibition @ 0.1 μM, MuSK
# Arg = Arg (Homo sapiens (Human), UniProt P42684); type: biochemical; conditions: read-out: % Inhibition @ 0.1 μM, Arg
# FGFR1 (V561M) = FGFR1 (V561M) (Homo sapiens (Human), UniProt P11362, V561M); type: biochemical; conditions: read-out: % Inhibition @ 0.1 μM, FGFR1 (V561M)
# Aurora A = Aurora A (Homo sapiens (Human), UniProt O14965); type: biochemical; conditions: read-out: % Inhibition @ 0.1 μM, Aurora-A
# FGFR2 = FGFR2 (Homo sapiens (Human), UniProt P21802); type: biochemical; conditions: read-out: % Inhibition @ 0.1 μM, FGFR2
# Tie2 (Y897S) = Tie2 (Y897S) (Homo sapiens (Human), UniProt Q02763, Y897S); type: biochemical; conditions: read-out: % Inhibition @ 0.1 μM, Tie2 (Y897S)
# Ros = Ros (Homo sapiens (Human), UniProt P08922); type: biochemical; conditions: read-out: % Inhibition @ 0.1 μM, Ros
# Lck = Lck (Homo sapiens (Human), UniProt P06239); type: biochemical; conditions: read-out: % Inhibition @ 0.1 μM, Lck
# TRKA = TRKA (Homo sapiens (Human), UniProt P04629); type: biochemical; conditions: read-out: % Inhibition @ 0.1 μM, TrkA
# Itk = Itk (Homo sapiens (Human), UniProt Q08881); type: biochemical; conditions: read-out: % Inhibition @ 0.1 μM, Itk
# Abl (m) = Abl (m) (Mus musculus (Mouse), UniProt P00520); type: biochemical; conditions: read-out: % Inhibition @ 0.1 μM, Abl (m)
# Tie2 (R849W) = Tie2 (R849W) (Homo sapiens (Human), UniProt Q02763, R849W); type: biochemical; conditions: read-out: % Inhibition @ 0.1 μM, Tie2 (R849W)
# Ret (V804L) = Ret (V804L) (Homo sapiens (Human), UniProt P07949, V804L); type: biochemical; conditions: read-out: % Inhibition @ 0.1 μM, Ret (V804L)
# Abl (Q252H) = Abl (Q252H) (Homo sapiens (Human), UniProt P00519, Q252H); type: biochemical; conditions: read-out: % Inhibition @ 0.1 μM, Abl (Q252H)
# Abl (H396P) = Abl (H396P) (Homo sapiens (Human), UniProt P00519, H396P); type: biochemical; conditions: read-out: % Inhibition @ 0.1 μM, Abl (H396P)
# GCK = GCK (Homo sapiens (Human), UniProt Q12851); type: biochemical; conditions: read-out: % Inhibition @ 0.1 μM, GCK
# Abl (Y253F) = Abl (Y253F) (Homo sapiens (Human), UniProt P00519, Y253F); type: biochemical; conditions: read-out: % Inhibition @ 0.1 μM, Abl (Y253F)
# FGFR1 = FGFR1 (Homo sapiens (Human), UniProt P11362); type: biochemical; conditions: read-out: % Inhibition @ 0.1 μM, FGFR1
# TrkB = TrkB (Homo sapiens (Human), UniProt Q16620); experiment: biochemical; conditions: read-out: % Inhibition @ 0.1 μM, TrkB
# Tie2 = Tie2 (Homo sapiens (Human), UniProt Q02763); type: biochemical; conditions: read-out: % Inhibition @ 0.1 μM, Tie2
# EphA1 = EphA1 (Homo sapiens (Human), UniProt P21709); type: biochemical; conditions: read-out: % Inhibition @ 0.1 μM, EphA1
# FLT3 = FLT3 (Homo sapiens (Human), UniProt P36888); conditions: read-out: % Inhibition @ 0.1 μM, Flt3
# FGFR3 = FGFR3 (Homo sapiens (Human), UniProt P22607); type: biochemical; conditions: read-out: % Inhibition @ 0.1 μM, FGFR3
# Aurora B = Aurora B (Homo sapiens (Human), UniProt Q96GD4); conditions: read-out: % Inhibition @ 0.1 μM, Aurora-B
# FGFR2 (N549H) = FGFR2 (N549H) (Homo sapiens (Human), UniProt P21802, N549H); type: biochemical; conditions: read-out: % Inhibition @ 0.1 μM, FGFR2 (N549H)
# Arg (m) = Arg (m) (Mus musculus (Mouse), UniProt Q4JIM5); type: biochemical; conditions: read-out: % Inhibition @ 0.1 μM, Arg (m)
# IRAK1 = IRAK1 (Homo sapiens (Human), UniProt P51617); type: biochemical; conditions: read-out: % Inhibition @ 0.1 μM, IRAK1
# Lck activated = Lck activated (Homo sapiens (Human), UniProt P06239); type: biochemical; conditions: read-out: % Inhibition @ 0.1 μM, Lck activated
# Chain of Ros (P08922 28-2347): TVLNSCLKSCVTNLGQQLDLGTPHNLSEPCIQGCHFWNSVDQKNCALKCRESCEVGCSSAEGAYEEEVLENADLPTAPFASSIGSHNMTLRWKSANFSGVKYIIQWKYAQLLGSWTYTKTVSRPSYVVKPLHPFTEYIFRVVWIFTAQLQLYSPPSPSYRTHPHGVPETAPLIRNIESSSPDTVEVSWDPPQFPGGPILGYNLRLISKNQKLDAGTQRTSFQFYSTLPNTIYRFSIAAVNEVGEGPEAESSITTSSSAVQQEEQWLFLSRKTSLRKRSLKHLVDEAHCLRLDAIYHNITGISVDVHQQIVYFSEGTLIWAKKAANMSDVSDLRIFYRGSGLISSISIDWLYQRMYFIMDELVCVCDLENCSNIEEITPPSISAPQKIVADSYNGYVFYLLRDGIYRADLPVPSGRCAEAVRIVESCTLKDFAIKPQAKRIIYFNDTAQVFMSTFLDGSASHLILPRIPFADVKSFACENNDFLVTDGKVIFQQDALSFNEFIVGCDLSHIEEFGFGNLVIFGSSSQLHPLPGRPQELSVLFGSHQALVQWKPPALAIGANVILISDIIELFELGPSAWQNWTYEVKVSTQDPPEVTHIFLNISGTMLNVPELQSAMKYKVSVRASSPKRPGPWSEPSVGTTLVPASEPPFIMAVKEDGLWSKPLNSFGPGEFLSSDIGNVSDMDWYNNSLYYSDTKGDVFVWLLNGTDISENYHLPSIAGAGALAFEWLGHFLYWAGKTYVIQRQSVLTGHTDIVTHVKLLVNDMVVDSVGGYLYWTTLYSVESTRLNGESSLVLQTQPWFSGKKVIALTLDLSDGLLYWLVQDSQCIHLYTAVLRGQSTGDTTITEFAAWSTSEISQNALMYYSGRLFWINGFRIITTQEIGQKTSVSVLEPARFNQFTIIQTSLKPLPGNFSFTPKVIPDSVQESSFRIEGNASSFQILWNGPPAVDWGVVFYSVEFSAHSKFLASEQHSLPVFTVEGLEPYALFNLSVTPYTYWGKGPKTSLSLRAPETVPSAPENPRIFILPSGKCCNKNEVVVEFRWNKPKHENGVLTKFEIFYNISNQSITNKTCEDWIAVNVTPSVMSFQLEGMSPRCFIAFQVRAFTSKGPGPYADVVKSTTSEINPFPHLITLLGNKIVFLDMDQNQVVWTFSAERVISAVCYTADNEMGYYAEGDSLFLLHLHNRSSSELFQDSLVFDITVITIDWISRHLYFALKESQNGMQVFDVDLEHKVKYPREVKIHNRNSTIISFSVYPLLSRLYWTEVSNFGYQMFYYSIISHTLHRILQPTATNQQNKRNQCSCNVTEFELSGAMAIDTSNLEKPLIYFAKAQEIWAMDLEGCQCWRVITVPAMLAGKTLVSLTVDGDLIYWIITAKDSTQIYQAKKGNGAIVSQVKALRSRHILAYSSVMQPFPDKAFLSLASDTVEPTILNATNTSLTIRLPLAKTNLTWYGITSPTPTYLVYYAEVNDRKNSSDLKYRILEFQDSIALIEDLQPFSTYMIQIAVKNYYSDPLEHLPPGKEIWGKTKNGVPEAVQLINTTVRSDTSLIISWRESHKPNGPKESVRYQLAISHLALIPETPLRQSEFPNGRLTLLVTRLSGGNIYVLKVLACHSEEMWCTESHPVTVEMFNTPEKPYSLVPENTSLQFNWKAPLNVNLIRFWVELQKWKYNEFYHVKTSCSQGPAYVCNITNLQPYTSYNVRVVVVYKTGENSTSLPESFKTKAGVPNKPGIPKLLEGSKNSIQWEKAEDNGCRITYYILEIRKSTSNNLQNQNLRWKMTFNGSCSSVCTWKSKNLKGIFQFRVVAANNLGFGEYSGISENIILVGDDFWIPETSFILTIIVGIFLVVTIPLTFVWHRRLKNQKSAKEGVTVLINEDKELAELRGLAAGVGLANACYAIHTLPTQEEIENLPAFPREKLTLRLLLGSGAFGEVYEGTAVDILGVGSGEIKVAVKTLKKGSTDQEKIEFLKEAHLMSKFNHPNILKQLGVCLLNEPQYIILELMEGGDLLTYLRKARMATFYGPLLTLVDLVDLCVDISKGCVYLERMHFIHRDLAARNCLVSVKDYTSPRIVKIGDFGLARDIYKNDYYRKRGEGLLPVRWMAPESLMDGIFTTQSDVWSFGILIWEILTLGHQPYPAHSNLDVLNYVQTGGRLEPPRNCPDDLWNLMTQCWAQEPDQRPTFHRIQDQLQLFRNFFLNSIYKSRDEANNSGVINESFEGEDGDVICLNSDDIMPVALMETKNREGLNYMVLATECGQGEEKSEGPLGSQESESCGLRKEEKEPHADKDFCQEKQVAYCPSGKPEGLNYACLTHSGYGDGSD
# Chain of Arg (m) (Q4JIM5 whole entry): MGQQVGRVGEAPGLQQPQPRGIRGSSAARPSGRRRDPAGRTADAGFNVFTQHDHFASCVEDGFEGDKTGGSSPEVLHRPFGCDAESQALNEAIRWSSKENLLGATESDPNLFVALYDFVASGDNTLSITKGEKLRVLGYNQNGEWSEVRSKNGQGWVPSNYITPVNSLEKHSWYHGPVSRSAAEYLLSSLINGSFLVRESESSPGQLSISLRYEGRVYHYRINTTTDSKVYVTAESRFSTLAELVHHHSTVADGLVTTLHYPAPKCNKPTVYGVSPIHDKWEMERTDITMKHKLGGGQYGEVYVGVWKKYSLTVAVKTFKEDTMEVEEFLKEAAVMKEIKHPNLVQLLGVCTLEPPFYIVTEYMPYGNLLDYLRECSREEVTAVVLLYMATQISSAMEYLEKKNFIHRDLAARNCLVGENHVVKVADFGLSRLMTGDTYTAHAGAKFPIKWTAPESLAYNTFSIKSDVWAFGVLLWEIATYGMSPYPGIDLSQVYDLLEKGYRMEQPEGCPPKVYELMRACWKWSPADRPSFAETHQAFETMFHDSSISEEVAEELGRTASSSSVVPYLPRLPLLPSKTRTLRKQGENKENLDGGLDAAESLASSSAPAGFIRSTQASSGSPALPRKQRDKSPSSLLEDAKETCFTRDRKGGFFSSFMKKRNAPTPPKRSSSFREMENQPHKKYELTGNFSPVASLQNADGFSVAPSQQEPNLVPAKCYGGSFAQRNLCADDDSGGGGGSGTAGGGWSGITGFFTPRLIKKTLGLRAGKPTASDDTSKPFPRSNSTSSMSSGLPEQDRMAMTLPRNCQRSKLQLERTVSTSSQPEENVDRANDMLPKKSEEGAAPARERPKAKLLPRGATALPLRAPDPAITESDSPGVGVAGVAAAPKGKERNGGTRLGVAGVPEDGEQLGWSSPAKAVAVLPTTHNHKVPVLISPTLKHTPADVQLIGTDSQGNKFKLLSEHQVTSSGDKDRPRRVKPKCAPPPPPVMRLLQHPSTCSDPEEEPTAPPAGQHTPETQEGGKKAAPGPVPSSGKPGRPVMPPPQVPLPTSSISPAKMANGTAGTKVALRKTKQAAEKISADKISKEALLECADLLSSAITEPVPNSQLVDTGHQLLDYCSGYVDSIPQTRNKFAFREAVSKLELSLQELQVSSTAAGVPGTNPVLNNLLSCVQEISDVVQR
# Chain of Ron (Q04912 25-1400): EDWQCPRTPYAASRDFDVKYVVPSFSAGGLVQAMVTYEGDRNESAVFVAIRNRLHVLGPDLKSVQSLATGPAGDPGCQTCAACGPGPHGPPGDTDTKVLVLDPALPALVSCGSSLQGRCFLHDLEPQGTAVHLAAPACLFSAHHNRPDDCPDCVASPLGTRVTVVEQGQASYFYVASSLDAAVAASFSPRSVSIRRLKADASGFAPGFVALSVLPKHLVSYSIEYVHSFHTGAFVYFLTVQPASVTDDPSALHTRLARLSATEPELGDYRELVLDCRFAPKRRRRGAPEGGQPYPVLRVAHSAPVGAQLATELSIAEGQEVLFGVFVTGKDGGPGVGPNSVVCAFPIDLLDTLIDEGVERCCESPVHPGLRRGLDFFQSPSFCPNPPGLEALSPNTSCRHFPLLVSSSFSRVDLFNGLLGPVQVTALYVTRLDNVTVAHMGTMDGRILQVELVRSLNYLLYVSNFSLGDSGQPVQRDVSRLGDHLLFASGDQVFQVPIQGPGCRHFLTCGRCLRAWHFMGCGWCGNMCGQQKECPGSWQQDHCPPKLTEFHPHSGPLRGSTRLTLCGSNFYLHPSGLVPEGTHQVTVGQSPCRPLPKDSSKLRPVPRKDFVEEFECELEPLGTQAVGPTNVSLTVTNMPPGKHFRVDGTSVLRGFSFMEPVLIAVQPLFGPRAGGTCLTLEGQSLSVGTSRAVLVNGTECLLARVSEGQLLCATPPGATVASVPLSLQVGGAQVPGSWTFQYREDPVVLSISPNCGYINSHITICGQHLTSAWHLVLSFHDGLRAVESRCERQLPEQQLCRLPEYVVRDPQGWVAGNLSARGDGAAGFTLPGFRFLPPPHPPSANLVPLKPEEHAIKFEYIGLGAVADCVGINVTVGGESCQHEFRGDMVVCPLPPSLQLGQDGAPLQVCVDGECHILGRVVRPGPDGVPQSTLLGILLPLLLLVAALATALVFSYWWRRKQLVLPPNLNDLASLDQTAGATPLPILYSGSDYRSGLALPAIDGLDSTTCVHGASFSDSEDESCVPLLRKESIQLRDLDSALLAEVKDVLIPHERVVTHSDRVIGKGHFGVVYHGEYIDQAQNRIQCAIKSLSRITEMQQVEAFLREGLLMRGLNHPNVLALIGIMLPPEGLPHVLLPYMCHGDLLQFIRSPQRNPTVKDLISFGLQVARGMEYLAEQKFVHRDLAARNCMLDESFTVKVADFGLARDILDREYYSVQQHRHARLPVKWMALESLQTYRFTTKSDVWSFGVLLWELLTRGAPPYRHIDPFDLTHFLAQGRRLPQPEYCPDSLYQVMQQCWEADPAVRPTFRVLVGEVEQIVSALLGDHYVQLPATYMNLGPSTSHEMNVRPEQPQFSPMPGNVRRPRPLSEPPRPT
smiles,measurement,setting,value
"COc1ccc2c(c1)[C@]1(C[C@H]1c1ccc3c(/C=C/c4ccc(N5CCN(C)CC5)nc4)n[nH]c3c1)C(=O)N2 [Example A33, (1R,2S)-5′-methoxy-2-(3-((E)-2-(6-(4-methylpiperazin-1-yl)pyridin-3-yl)vinyl)-1H-indazol-6-yl)spiro[cyclopropane-1,3′-indolin]-2′-one 2,2,2-trifluoroacetate]",inhibition at 0.1 µM,ALK,32%
same,inhibition at 0.1 µM,Abl (T315I),94%
same,inhibition at 0.1 µM,Abl,72%
same,inhibition at 0.1 µM,Ron,42%
same,inhibition at 0.1 µM,Abl (M351T),95%
same,inhibition at 0.1 µM,Bmx,68%
same,inhibition at 0.1 µM,ARK5,67%
same,inhibition at 0.1 µM,EphB1,34%
same,inhibition at 0.1 µM,MuSK,18%
same,inhibition at 0.1 µM,Arg,94%
same,inhibition at 0.1 µM,FGFR1 (V561M),91%
same,inhibition at 0.1 µM,Aurora A,96%
same,inhibition at 0.1 µM,FGFR2,82%
same,inhibition at 0.1 µM,Tie2 (Y897S),49%
same,inhibition at 0.1 µM,Ros,23%
same,inhibition at 0.1 µM,Lck,48%
same,inhibition at 0.1 µM,TRKA,97%
same,inhibition at 0.1 µM,Itk,34%
same,inhibition at 0.1 µM,Abl (m),96%
same,inhibition at 0.1 µM,Tie2 (R849W),40%
same,inhibition at 0.1 µM,Ret (V804L),43%
same,inhibition at 0.1 µM,Abl (Q252H),83%
same,inhibition at 0.1 µM,Abl (H396P),93%
same,inhibition at 0.1 µM,GCK,51%
same,inhibition at 0.1 µM,Abl (Y253F),78%
same,inhibition at 0.1 µM,FGFR1,87%
same,inhibition at 0.1 µM,TrkB,98%
same,inhibition at 0.1 µM,Tie2,83%
same,inhibition at 0.1 µM,EphA1,22%
same,inhibition at 0.1 µM,FLT3,28%
same,inhibition at 0.1 µM,FGFR3,91%
same,inhibition at 0.1 µM,Aurora B,100%
same,inhibition at 0.1 µM,FGFR2 (N549H),75%
same,inhibition at 0.1 µM,Arg (m),96%
same,inhibition at 0.1 µM,IRAK1,24%
same,inhibition at 0.1 µM,Lck activated,41%
